Measurements from BindingDB's records for doi:10.1021/jm070336k (University of Mississippi, 2007).

Experiments:
[1] = molecular target: L-lactate dehydrogenase B chain (Bos taurus, UniProt Q5E9B1); test: Lactate Dehydrogenase Inhibition Assay; settings: pH 7; 25 °C
L-lactate dehydrogenase = L-lactate dehydrogenase (Plasmodium falciparum (isolate CDC / Honduras), UniProt Q27743); test: Lactate Dehydrogenase Inhibition Assay; settings: pH 7; 25 °C
Sequence of L-lactate dehydrogenase (Q27743 whole entry): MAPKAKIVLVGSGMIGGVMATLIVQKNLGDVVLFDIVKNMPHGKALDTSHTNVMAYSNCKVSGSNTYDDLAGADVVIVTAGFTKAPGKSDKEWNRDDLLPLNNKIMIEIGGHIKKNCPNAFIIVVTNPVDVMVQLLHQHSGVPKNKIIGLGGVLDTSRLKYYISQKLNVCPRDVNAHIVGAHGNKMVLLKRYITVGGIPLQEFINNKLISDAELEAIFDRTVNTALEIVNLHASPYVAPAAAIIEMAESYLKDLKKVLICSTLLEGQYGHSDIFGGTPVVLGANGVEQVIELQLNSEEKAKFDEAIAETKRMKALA

Sequence of L-lactate dehydrogenase B chain (Q5E9B1 whole entry): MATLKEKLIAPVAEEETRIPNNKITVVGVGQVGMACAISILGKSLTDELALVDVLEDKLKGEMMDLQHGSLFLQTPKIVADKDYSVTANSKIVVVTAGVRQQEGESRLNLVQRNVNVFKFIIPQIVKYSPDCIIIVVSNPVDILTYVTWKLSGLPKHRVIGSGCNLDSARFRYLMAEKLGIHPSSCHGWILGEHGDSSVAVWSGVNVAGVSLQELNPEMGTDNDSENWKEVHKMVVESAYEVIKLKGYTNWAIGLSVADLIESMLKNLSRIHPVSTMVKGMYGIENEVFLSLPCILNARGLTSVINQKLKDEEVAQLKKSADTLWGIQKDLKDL

Structure (SMILES) | IC50 [1] [µM] | IC50 (L-lactate dehydrogenase) [µM]
COc1cc(COc2cc(O)c3c(=O)cc(C(=O)O)oc3c2)ccc1NC(=O)C(=O)O [7-{[4-(formamidoformic acid)-3-methoxyphenyl]methoxy}-5-hydroxy-4-oxo-4H-chromene-2-carboxylic acid] | > 232 | 
O=C(O)C(=O)Nc1ccc(CCOc2cc(O)c3c(=O)cc(C(=O)O)oc3c2)cc1 [7-{2-[4-(formamidoformic acid)phenyl]ethoxy}-5-hydroxy-4-oxo-4H-chromene-2-carboxylic acid] | > 241 | > 241

Continued, values first:

IC50 [1] [µM] | IC50 (L-lactate dehydrogenase) [µM] | Structure (SMILES)
> 225 |  | COc1cc(CCOc2cc(O)c3c(=O)cc(C(=O)O)oc3c2)ccc1NC(=O)C(=O)O [7-{2-[4-(formamidoformic acid)-3-methoxyphenyl]ethoxy}-5-hydroxy-4-oxo-4H-chromene-2-carboxylic acid]
> 187 |  | COc1ccc(CNC(=O)c2cc(=O)c3c(O)cc(OCCc4ccc(NC(=O)C(=O)O)cc4)cc3o2)cc1 [[(4-{2-[(5-hydroxy-2-{[(4-methoxyphenyl)methyl]carbamoyl}-4-oxo-4H-chromen-7-yl)oxy]ethyl}phenyl)carbamoyl]formic acid]
> 179 |  | COc1ccc(CNC(=O)c2cc(=O)c3c(O)cc(OCCc4ccc(NC(=O)C(=O)O)c(C#N)c4)cc3o2)cc1 [[(2-cyano-4-{2-[(5-hydroxy-2-{[(4-methoxyphenyl)methyl]carbamoyl}-4-oxo-4H-chromen-7-yl)oxy]ethyl}phenyl)carbamoyl]formic acid]
